# Data reported in patent US20230277508A1, “USE OF COMPOUND AS CYP2E1 INHIBITOR” (SHANGHAI LING XI BIOTECHNOLOGY DEVELOPMENT CO., LTD., priority 2020, published 2023).
# Legend:
# [1] = tested on: liver fibrosis in mice induced by a high-fat diet; test: Mouse liver fibrosis model induced by a high-fat diet; type: in vivo, C57/6J mice; conditions: SMI0 30 and 150 mg/kg ig daily, 26 weeks, vs model group
# Experimental: Experimental method: Male C57/6J mice were fed with a high-fructose, high-fat, and high-cholesterol feed to prepare mouse liver steatosis and hepatitis models, and a control group was fed with a low-fat and low-sugar control feed. An SMI0 intervention group was divided into a low-dose intervention group and a high-dose intervention group, which were intragastrically administered with the compound SMI0 at 30 mg/kg and 150 mg/kg every day from the beginning of modeling to the 26nd week of modeling. At the end of the 26-week experiment, blood was collected from the orbit, a body weight was measured, and then the mice each were sacrificed. The weight and appearance of a liver (color, texture, and presence or absence of nodules of the liver) were recorded. Some liver specimens were subjected to HE staining and then observed, and a steatosis score of mice in each group was recorded; and Masson staining was conducted to evaluate a liver fibrosis status of mice, and an oil red O staining area percentage was determined (model group, n=10 mice; SMI0 compound low-dose group, n=10 […]; and SMI0 compound high-dose group, n=10 […]).
# [2] = tested on: DEN-induced liver fibrosis in rats; test: DEN-induced rat liver fibrosis model; type: in vivo, SD rat; conditions: 12 weeks, vs model group
# Experimental: Experimental method: An SD rat liver damage model was constructed through intermittent intraperitoneal injection of DEN. A model group was injected intraperitoneally with DEN at 50 mg/kg twice a week in the first 4 weeks and then once a week in the 5th to 12th weeks. An SMI0 intervention group was divided into SMI0+DEN low-dose and high-dose groups and an SMI0 high-dose continuous administration group, where the SMI0+DEN low-dose and high-dose groups were intragastrically administered with the compound SMI0 at 30 mg/kg and 150 mg/kg 5 min before DEN administration each time, respectively; and the SMI0 high-dose continuous administration group was intragastrically administered with the compound SMI0 at 150 mg/kg every day from the 1st week to the 12th week. At the end of molding, blood was collected from the orbit, and plasma liver function indexes of rats were determined by an automatic biochemical analyzer (model group, n=10 rats; SMI0 compound low-dose group, n=21 rats; SMI0 compound+DEN high-dose group, n=28 rats; and SMI0 compound high-dose continuous administration group, n=24 rats).
# CYP2E1 = molecular target: T1, CYP2E1 (Mus musculus, UniProt Q05421); test: CYP2E1 activity (liver microsome) in mouse Lewis lung cancer in situ model; type: in vivo; conditions: SMI0 intervention group vs model group, P<0.05
# T1 construct: from tissue; host or cells: liver microsomes of treated model mice (calcium precipitation)
# Experimental: Experimental method: A calcium precipitation method was used to prepare a mouse liver microsome, and a Braford method was used to determine a protein concentration in the microsome. An incubation system was prepared with 2×PBS, a CZX solution, and the liver microsome at a final concentration of 0.5 mg/mL, and then pre-incubated at 37° C. for 5 min; NADPH was added to initiate a reaction, and a resulting mixture was incubated at 37° C. for 30 min and then placed on ice to terminate the reaction; and ethyl acetate was added to extract 6-hydroxychlorzoxazone, a resulting mixture was vortexed and centrifuged, and a resulting upper organic phase was collected and blow-dried with nitrogen. A peak area of a CZX metabolite 6-hydroxychlorzoxazone was detected by HPLC under the following conditions: methanol:water=56:44, and detection wavelength: 287 nm. A concentration A C of the metabolite 6-hydroxychlorzoxazone was calculated through substitution into a standard curve; and a reaction rate of conversion of CZX into 6-hydroxychlorzoxazone was calculated according to V(pmol/min/mg)=(ΔC*1000)/(B*T) to evaluate an enzymatic activity of CYP2E1, where B represents a protein concentration of the microsome (mg/mL) and T represents an incubation time (min). A correlation between CYP2E1 activity and lung tumor weight in the Lewis lung cancer in situ model was analyzed.
# HepG2 liver cancer cells = test: Direct effect on HepG2 liver cancer cells; type: cell-based; conditions: up to 100 μmol/L, 24 h
# Experimental: Experimental method: HepG2 liver cancer cells and H22 liver cancer cells in a logarithmic growth phase each were selected and inoculated into a 96-well plate at a concentration of 1*10^5 cells/mL, and then 100 μL of a basic medium including SMI0 at different concentrations (0 μmol/L, 0.16 μmol/L, 0.8 μmol/L, 4 μmol/L, 20 μmol/L, and 100 μmol/L) was added to each well; and 24 h later, the proliferation activity of HepG2 was determined by a CCK8 method, a migration ability of HepG2 was determined by wound-healing assay, and an apoptosis ability of HepG2 was determined by flow cytometry (FCM).
# [3] = tested on: HepG2 liver cancer cells / macrophage RAW264.7; test: HepG2 cells co-cultivated with RAW264.7 macrophage supernatant; type: cell-based; conditions: SMI0 intervention groups (especially 4 μmol/L) vs macrophage co-cultivation group, P<0.001
# Experimental: Experimental method: A supernatant of a murine macrophage RAW264.7 was collected to establish a co-cultivation system with the HepG2 liver cancer cell, thereby simulating a macrophage inflammatory microenvironment of liver cancer. In the SMI0 intervention groups, SMI0 was added at different concentrations (0 μmol/L, 0.16 μmol/L, 0.8 μmol/L, 4 μmol/L, 20 μmol/L, and 100 μmol/L) while interleukin was added for induction. Culture supernatants of the SMI0 intervention groups were collected to prepare conditional media. HepG2 liver cancer cells in a logarithmic growth phase were adopted. The proliferation activity of HepG2 was determined by a CCK8 method, a migration ability of HepG2 was determined by wound-healing assay, and an apoptosis ability of HepG2 was determined by FCM.
# [4] = tested on: U251 cells / M2 microglial cells; test: U251 cells co-cultivated with M2 microglial cells; type: cell-based, human; conditions: SMI0 50 μmol/L vs M2 microglial cell co-cultivation group, P<0.001
# Experimental: Experimental method: 10 1-2 d newborn C57BL/6 WT mice and 6 CYP2E1^−/− mice were taken, primary microglial cells and astrocytes were collected and inoculated into 6-well plates, and 24 h later, culture supernatants were taken and co-cultivated with glioma cells. Experimental groups: control group; M2 model group; high-concentration, medium-concentration, and low-concentration SMI0 (50 μmol/L, 12.5 μmol/L, and 3.1 μmol/L) groups; and CYP2E1 gene-knockout group. 24 h later, supernatants were discarded; and […] and IL-13 each were added at 20 ng/mL to induce the transformation of microglial cells into the M2 type in the M2 model group and the high-concentration, medium-concentration, and low-concentration SMI0 groups, and different concentrations of SMI0 (50 μmol/L, 12.5 μmol/L, and 3.1 μmol/L) were also added in the intervention groups. The proliferation of glioma cells was determined by a CCK8 method, and an apoptosis proportion was determined by an Annexin V-FITC-PI apoptosis staining kit.
# T1 sequence (Q05421 whole entry): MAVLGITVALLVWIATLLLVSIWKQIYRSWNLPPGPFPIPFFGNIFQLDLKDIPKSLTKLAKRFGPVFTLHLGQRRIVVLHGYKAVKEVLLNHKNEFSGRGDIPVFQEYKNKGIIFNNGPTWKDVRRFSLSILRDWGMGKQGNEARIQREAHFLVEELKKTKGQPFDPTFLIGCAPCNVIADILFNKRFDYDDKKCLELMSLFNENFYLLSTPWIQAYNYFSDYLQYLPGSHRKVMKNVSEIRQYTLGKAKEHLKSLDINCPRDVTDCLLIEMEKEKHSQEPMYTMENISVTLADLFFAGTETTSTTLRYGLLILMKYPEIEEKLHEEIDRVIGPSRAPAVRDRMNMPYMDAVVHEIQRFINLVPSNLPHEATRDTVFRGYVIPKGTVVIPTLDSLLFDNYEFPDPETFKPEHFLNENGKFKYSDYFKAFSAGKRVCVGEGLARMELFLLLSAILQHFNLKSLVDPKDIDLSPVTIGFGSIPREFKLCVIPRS
smiles,measurement,setting,value
CC(=O)c1scnc1C [SMI0],liver fibrosis level in mice induced by a high-fat diet,[1],significantly reduce
same,liver coefficient,"[2]; SMI0 intervention group (30, 150 mg/kg before DEN; 150 mg/kg daily)",reduced to varying degrees
same,Collagen I,[2]; SMI0 intervention group,reduced to varying degrees
same,liver fibrosis Ishark score,[2]; SMI0 intervention group,reduced to varying degrees
same,liver fibrosis Masson staining area percentage,[2]; SMI0 intervention group,reduced to varying degrees
same,α-SMA,[2]; SMI0 intervention group,reduced to varying degrees
same,CYP2E1 activity,CYP2E1,significantly reduced
same,"effect on the proliferation, migration, and apoptosis of HepG2 liver cancer cells",HepG2 liver cancer cells,no significant inhibitory effect
same,apoptosis ability of HepG2 liver cancer cells,[3],significantly enhanced
same,migration ability of HepG2 liver cancer cells,[3],significantly weakened
same,proliferation activity of HepG2 liver cancer cells,[3],significantly weakened
same,proliferation of U251 cells,[4],significantly inhibited
